Values joined by “and” are separate entries in the source; they are usually repeats but may differ in a detail not shown here. Identical values can stand only once.
Tested on: P. vivax AMRU-1 strain
Assay: Antimalarial activity against P. vivax in Aotus monkey
Assay type: in vivo, Plasmodium vivax
Conditions: for # Monkey Cured/# Monkey Used, P. vivax: cured = parasitemia free for 100 days post treatment; for outcome against P. vivax at 1 and 3 mg/kg/day x3: po, antifolate-resistant clone with four DHFR mutations
Protocol: (e). Toxicity Study in Aotus monkey: Protocol: Two malaria double cured Aotus weighing 1027-695 grams respectively received single dose of 3 mg/kg orally of the two compounds 2b and 3e. The monkeys were weighed and pre-bleed for CBC and Chemistry (ALT, BUN, Creatinine) determination, and again three, seven and 15 days post treatment. Signs of toxicity such as anorexia, vomiting, diarrhea or behavior changes were recorded. […] (f). Antimalarial Activity against P. falciparum in Aotus monkey: Protocol: Six (6) malaria naive Aotus lemurinus lemurinus (weigh 787-978 grms) were divided into two groups of two Aotus each plus two controls (MN13177 male and MN 13153 male) and infected with 5×10^6 P. falciparum FVO malaria parasites with 1 ml of an appropriate dilution in RPMI media intravenously on the saphenous vein. When their parasitemia reached 5×10^4 parasites/ul, treatment was started. Giemsa-stained thick blood smears were prepared daily with a prick in the ear marginal vein and parasites enumerated by the Earle and Perez method. Group 1 Aotus received 3e at 1 mg/kg once a day×three days. Group 2 Aotus received 2b at 1 mg/kg once a day×three days. The monkeys were weight and pre-bled for CBC and Chemistry (ALT, BUN, Creatinine) determination, and on day 4 post-treatmetne (PT). Bleedings for Pk determinations were carried out on day 1 PT at time 0, 1 hr, 7:30 hr and 24 hr PT. Group 1 (receiving 3e) animals cleared the parasitemias on day 3 post treatment (PT) and remained negative up to 100 days PT. In group 2 (receiving 2b), one animal cleared on day 3 PT and the other one on day 4 PT remaining negative up to 100 days PT. […] (g). Antimalarial Activity against P. vivax in Aotus monkey: Protocol: Fourteen (14) P. falciparum cured Aotus l. lemurinus monkeys (male and female) (weight 700-925 grms) were infected intravenously with 5×10^6 parasites of the P. vivax AMRU-1 strain diluted in RPMI media obtained from a donor and divided into two larger groups of 6 monkeys each (Group I and Group II) (2 monkeys per dose level), that received 3e and 6 monkeys (2 monkeys per dose level) that received 2b daily at 0.5, 1.0 and 3 mg/kg/day for a total of 3 days. Two monkeys were left has untreated controls. Treatment started when parasitemia reached 5,000 parasites×cc/mm on day 6 PI. Daily food intake was documented. Daily Giemsa-stained thick blood smears were prepared from a prick in the marginal ear vein and parasites enumerated by the Earle and Perez method. The animals were weighed at weekly intervals. Blood samples for Pk determination were collected at the following time points as follows: Day 0: CBC and chemistry panel (ALT. Creatinine and BUN); Day 4: CBC and chemistry Panel. CBC and chemistry panels were done the day prior to first dose and 24 hours after last dose and at weekly intervals thereafter. […] The other monkeys received 1 and 3 mg/kg of 3e remained negative until day 100 PT. In Group II, all monkeys except for one that received 3 mg/kg of 2b failed treatment and were retreated on day 3 PT with 3e at either 0.25, 0.5 or 1 mg/kg for three days. In the monkeys that received re-treatment at 0.25 mg/kg, one cleared on day 4 PT but needed to be treated with Mefloquine on day 8 PT due to a low platelet count. The other animals that had not been cleared by day 6 PT were treated with Mefloquine. […] P. vivax is known to be very drug resistant to antifolates. (h). Presumptive Causal Prophylactic Test against P. cynomolgi in Rhesus monkey: Protocol: […]

Row | SMILES | activity against P. vivax at 0.5 and 1 mg/kg x3 | # Monkey Cured/# Monkey Used, P. vivax (0.5 mg/kg/day x 3 days) | # Monkey Cured/# Monkey Used, P. vivax (1 mg/kg/day x 3 days) | # Monkey Cured/# Monkey Used, P. vivax (3 mg/kg/day x 3 days, 3 mg/kg/day) | outcome against P. vivax at 1 and 3 mg/kg/day x3 | outcome against P. vivax at 0.5 mg/kg (0.5 mg/kg/day x 3 days, two monkeys) | # Monkey Cured/# Monkey Used, P. vivax (3 mg/kg/day x 3 days) | remained negative until day PT (P. vivax, 1 and 3 mg/kg x 3 days) [days]
1 | CCOC(=O)Nc1nc(NC(=O)OCC)c2c(ccc3c2ccn3Cc2ccccc2C(F)(F)F)n1 [Compound 2b] | not active | 0/2 | 0/2 | one out of two and 1/2 | less active | – | – | –
2 | CC(=O)N(C(C)=O)c1nc(N(C(C)=O)C(C)=O)c2c(ccc3c2ccn3Cc2ccccc2C(F)(F)F)n1 [Compound 3e, 1,3-Bis(diacetylamino)-7-(2-trifluoromethyl)benzyl-7H-pyrrolo[3,2-f]quinazoline] | – | 0/2 | 2/2 | – | cured and 4/4 | suppressed the parasitemia but needed re-treatment on day 10 PT | 2/2 | 100

From patent publication US7253177B2, “Synthesis and antimalarial activity of pyrrolo[3,2-f]quinazoline-1,3-diamine derivatives” (United States of America as Represented by the Secretary of …, priority 2004, dated 2007)
